Numbers after ± are expanded uncertainties.
Conditions: Liquid; for speed of sound: Pulse-echo method; for mass density: Vibrating tube method

CCCCCCCC/C=C\CCCCCCCC(=O)OC [methyl cis-9-octadecenoate]
Conditions	mass density, 343.15 K [kg/m3]	mass density, 353.15 K [kg/m3]	mass density, 363.15 K [kg/m3]	mass density, 373.15 K [kg/m3]	mass density, 383.15 K [kg/m3]	mass density, 393.15 K [kg/m3]	speed of sound, 343.15 K [m/s]	speed of sound, 363.15 K [m/s]	speed of sound, 383.15 K [m/s]	speed of sound, 393.15 K [m/s]
101.3 kPa	–	830.4 ± 0.6	823.2 ± 0.6	815.8 ± 0.6	808.4 ± 0.6	800.8 ± 0.6	–	1170.9 ± 2.7	1108.9 ± 2.6	1078.5 ± 2.5
10000 kPa	–	838 ± 0.6	831.3 ± 0.6	824.2 ± 0.6	817.4 ± 0.6	810.2 ± 0.6	–	1228.2 ± 2.8	1170.4 ± 2.7	1142.4 ± 2.6
20000 kPa	–	845.1 ± 0.6	838.7 ± 0.6	832 ± 0.6	825.5 ± 0.6	818.5 ± 0.6	–	1280.6 ± 2.9	1226.5 ± 2.8	1200 ± 2.7
30000 kPa	–	851.5 ± 0.6	845.5 ± 0.6	839.1 ± 0.6	832.7 ± 0.7	826.2 ± 0.7	–	1329.3 ± 3	1277.8 ± 2.9	1252 ± 2.8
40000 kPa	–	857.5 ± 0.7	851.8 ± 0.7	845.7 ± 0.7	839.5 ± 0.7	833.2 ± 0.7	–	1374 ± 3	1324.6 ± 2.9	1299.9 ± 2.9
50000 kPa	–	863.3 ± 0.7	857.7 ± 0.7	851.8 ± 0.7	845.9 ± 0.7	839.6 ± 0.7	–	1414.4 ± 3.1	1367.4 ± 3	1343.8 ± 3
60000 kPa	–	868.7 ± 0.7	863.1 ± 0.7	857.5 ± 0.7	851.8 ± 0.7	845.7 ± 0.7	–	1454.6 ± 3.2	1407.7 ± 3.1	1384.5 ± 3
70000 kPa	–	873.8 ± 0.7	868.4 ± 0.7	862.9 ± 0.8	857.5 ± 0.8	851.7 ± 0.8	–	1492.2 ± 3.3	1446.1 ± 3.2	1423.6 ± 3.1
80000 kPa	884.4 ± 0.7	878.7 ± 0.8	873.3 ± 0.8	868.2 ± 0.8	862.8 ± 0.8	857.2 ± 0.8	1575.4 ± 3.4	1527.5 ± 3.3	1481.7 ± 3.2	1460.2 ± 3.2
90000 kPa	889 ± 0.8	883.6 ± 0.8	878.1 ± 0.8	873 ± 0.8	867.9 ± 0.8	862.4 ± 0.8	1609.4 ± 3.5	1563.5 ± 3.4	1516.9 ± 3.3	1495.7 ± 3.3
100000 kPa	893.4 ± 0.8	888.2 ± 0.8	882.9 ± 0.8	878.1 ± 0.8	873.2 ± 0.8	867.6 ± 0.9	1641.6 ± 5.1	1597.2 ± 5	1550.2 ± 4.9	1529.7 ± 4.8
110000 kPa	–	–	–	–	–	–	1672.6 ± 5.2	1629.1 ± 5.1	1583.4 ± 5	1562.8 ± 4.9
120000 kPa	–	–	–	–	–	–	1701.9 ± 5.3	1659.3 ± 5.2	1615.8 ± 5.1	1593.9 ± 5
130000 kPa	–	–	–	–	–	–	1729.9 ± 5.4	1687.5 ± 5.3	1645.9 ± 5.1	1624.5 ± 5.1
140000 kPa	–	–	–	–	–	–	1757.3 ± 5.5	1715.4 ± 5.3	1674.2 ± 5.2	1654.6 ± 5.2
150000 kPa	–	–	–	–	–	–	1783.8 ± 5.5	1741.8 ± 5.4	1701.5 ± 5.3	1683 ± 5.2
160000 kPa	–	–	–	–	–	–	1809.7 ± 5.6	1766.9 ± 5.5	1729.4 ± 5.4	1710.3 ± 5.3
170000 kPa	–	–	–	–	–	–	1834.3 ± 5.7	1793.1 ± 5.6	1755.3 ± 5.5	1736.2 ± 5.4
180000 kPa	–	–	–	–	–	–	1859.7 ± 5.8	1817.7 ± 5.6	1781.4 ± 5.5	1761.2 ± 5.5
190000 kPa	–	–	–	–	–	–	1883.4 ± 5.8	1841.2 ± 5.7	1805.7 ± 5.6	1785.3 ± 5.5
200000 kPa	–	–	–	–	–	–	1905.8 ± 5.9	1864.9 ± 5.8	1828.3 ± 5.7	1809.7 ± 5.6
